Active and inactive are the calls of the source. No cut-off for these calls is given here.
Assays:
MDA-MB-231 [1] = assay: Photocytotoxicity in human MDA-MB-231 cells assessed as reduction in 3D multicellular spheroids diameter at 0.5 to 1 uM incubated for 24 hrs under light irradiation of 50 mW.cm/2 at 400 to 700nm measured after 10 mins in hypoxia condition; assay type: functional, cell-based; settings: dose 0.5-1 µM
[2] = Toxicity in BALB/c mouse assessed as effect on platelets at 25 mg/kg, iv measured after 14 days under light irradiation of 300 mW.cm/2 at 400 to 700nm measured after 5 mins; assay type: organism-based; settings: in vivo, 336 h, 0.7 µM, time 14 day
4T1 [3] = assay: Antitumor immunity against mouse 4T1 cells implanted in BALB/c mouse model assessed as increase of CD4+ T cells in lymph node at 25 mg/kg, iv measured after 14 days under light irradiation of 300 mW.cm/2 at 400 to 700nm measured after 5 mins […]; assay type: functional, organism-based; settings: time 14.0 day
MDA-MB-231 [4] = assay: Induction of pyroptosis in human MDA-MB-231 cells assessed as cell swelling at 0.5 uM preincubated with compound for 4 hrs followed by light irradiation of 20 mW.cm/2 at 400 to 700nm for 10 mins by confocal fluorescence microscopy analysis; assay type: functional, cell-based
MDA-MB-231 [5] = assay: Downregulation of PD-L1 expression level in human MDA-MB-231 cells at 0.1 to 0.5 uM incubated for 24 hrs under light irradiation of 20 mW.cm/2 at 400 to 700nm for 10 mins by Western blot analysis; assay type: functional, cell-based; settings: dose 0.1-0.5 µM
MDA-MB-231 [6] = assay: Induction of pyroptosis in human MDA-MB-231 cells assessed as formation of bubble-like protrusion on cell surface at 0.25 uM preincubated with compound for 12 hrs followed by light irradiation of 20 mW.cm/2 at 400 to 700nm for 10 mins by confocal fluorescence microscopy analysis; assay type: functional, cell-based
MDA-MB-231 [7] = assay: Induction of pyroptosis in human MDA-MB-231 cells assessed as upregulation of GSDME-N expression level at 0.1 to 0.5 uM incubated with compound for 12 hrs under dark condition by Western blot analysis; assay type: functional, cell-based; settings: dose 0.1-0.5 µM
[8] = Phototoxicity against human MDA-MB-231 cells preincubated for 2 hrs followed by light irradiation of 20 mW.cm/2 at 400 at 700nm for 24 hrs by CCK-8 method; assay type: functional, cell-based; settings: MDA-MB-231, light or radiation study
[9] = Toxicity in BALB/c mouse assessed as effect on kidney at 25 mg/kg, iv measured after 14 days under light irradiation of 300 mW.cm/2 at 400 to 700nm measured after 5 mins; assay type: organism-based; settings: in vivo, 336 h, 0.7 µM, time 14 day
MDA-MB-231 [10] = assay: Induction of pyroptosis in human MDA-MB-231 cells assessed as effect on caspase-1 expression level at 0.1 to 0.5 uM preincubated with compound for 12 hrs followed by light irradiation of 20 mW.cm/2 at 400 to 700nm for 10 mins by Western blot analysis; assay type: functional, cell-based; settings: dose 0.1-0.5 µM
[11] = Toxicity in BALB/c mouse assessed as effect on liver at 25 mg/kg, iv measured after 14 days under light irradiation of 300 mW.cm/2 at 400 to 700nm measured after 5 mins; assay type: organism-based; settings: in vivo, 336 h, 0.7 µM, time 14 day
4T1 [12] = assay: Cytotoxicity against mouse 4T1 cells at 0.01 to 10 uM incubated for 2 hrs under dark condition by CCK-8 method; assay type: functional, cell-based; settings: dose 0.01-10 µM
MDA-MB-231 [13] = assay: Induction of pyroptosis mediated immunogenic cell death in human MDA-MB-231 cells assessed as increase in HMGB1 release at 0.5 uM incubated for 12 hrs under light irradiation of 20 mW.cm/2 at 400 to 700nm for 10 mins; assay type: functional, cell-based
MDA-MB-231 [14] = assay: Photocytotoxicity in human MDA-MB-231 cells assessed as cell viablity incubated for 24 hrs under light irradiation of 50 mW.cm/2 at 400 to 700nm measured after 10 mins in normoxia condition by CCK-8 method; assay type: functional, cell-based; settings: MDA-MB-231, light or radiation study
4T1 [15] = assay: Antitumor activity against mouse 4T1 cells implanted in BALB/c mouse model assessed as reduction in tumor growth at 25 mg/kg, iv measured after 14 days under light irradiation of 300 mW.cm/2 at 400 to 700nm measured after 5 mins; assay type: functional, organism-based; settings: time 14.0 day
Homo sapiens = species on record: Homo sapiens; assay: Binding affinity to PD-L1 (unknown origin) by streptavidin-biotin pull down assay
[16] = Toxicity in BALB/c mouse assessed as effect on tumor at 25 mg/kg, iv measured after 14 days by H and E staining based analysis; assay type: organism-based; settings: in vivo, 336 h, time 14 day
[17] = Toxicity in BALB/c mouse assessed as effect on kidney at 25 mg/kg, iv measured after 14 days by H and E staining based analysis; assay type: organism-based; settings: in vivo, 336 h, time 14 day
[18] = Toxicity in BALB/c mouse assessed as effect on spleen at 25 mg/kg, iv measured after 14 days under light irradiation of 300 mW.cm/2 at 400 to 700nm measured after 5 mins; assay type: organism-based; settings: in vivo, 336 h, 0.7 µM, time 14 day
[19] = Toxicity in BALB/c mouse assessed as effect on spleen at 25 mg/kg, iv measured after 14 days by H and E staining based analysis; assay type: organism-based; settings: in vivo, 336 h, time 14 day
4T1 [20] = assay: Inhibition of mouse 4T1 cells at 0.1 uM under light irradiation of 20 mW.cm/2 at 400 to 700nm measured after 14 days by crystal violet staining based assay; assay type: functional, cell-based; settings: time 14.0 day
MDA-MB-231 [21] = assay: Induction of pyroptosis mediated immunogenic cell death in human MDA-MB-231 cells assessed as increase in CRT exposure on cell membrane at 0.5 uM incubated for 12 hrs under light irradiation of 20 mW.cm/2 at 400 to 700nm for 10 mins; assay type: functional, cell-based
MDA-MB-231 [22] = assay: Inhibition of human MDA-MB-231 cells at 0.1 uM under light irradiation of 20 mW.cm/2 at 400 to 700nm measured after 14 days by crystal violet staining based assay; assay type: functional, cell-based; settings: time 14.0 day
4T1 [23] = assay: Antitumor immunity against mouse 4T1 cells implanted in BALB/c mouse model assessed as increase in proportion of tumor infiltrating CD8+ T cells at 25 mg/kg, iv measured after 14 days under light irradiation of 300 mW.cm/2 at 400 to 700nm measured after 5 mins by immunofluorescence analysis; assay type: functional, organism-based; settings: time 14.0 day
[24] = Toxicity in BALB/c mouse assessed as effect on liver at 25 mg/kg, iv measured after 14 days by H and E staining based analysis; assay type: organism-based; settings: in vivo, 336 h, time 14 day
MDA-MB-231 [25] = assay: Induction of pyroptosis in human MDA-MB-231 cells assessed as formation of bubble-like protrusion on plasma membrane at 0.25 uM preincubated with compound for 12 hrs followed by light irradiation of 20 mW.cm/2 at 400 to 700nm for 10 mins by microscopy analysis; assay type: functional, cell-based
[26] = Aqueous solubility of the compound by UV-vis absorption analysis; assay type: physicochemical; settings: water
MDA-MB-231 [27] = assay: Inhibition of STAT3 phosphorylation level in human MDA-MB-231 cells at 0.5 uM incubated for 24 hrs under light irradiation of 20 mW.cm/2 at 400 to 700nm for 10 mins by Western blot analysis; assay type: functional, cell-based
[28] = Phototoxicity against mouse 4T1 cells preincubated for 2 hrs followed by light irradiation of 20 mW.cm/2 at 400 at 700nm for 24 hrs by CCK-8 method; assay type: functional, cell-based; settings: 4T1, light or radiation study

## O=c1cc2sc3cc(N4CCNCC4)ccc3nc-2c2ccccc12
MDA-MB-231 [1]
  Activity: Active
[2]
  Activity: Non-toxic
4T1 [3]
  Activity: Active
MDA-MB-231 [4]
  Activity: Active
MDA-MB-231 [5]
  Activity: Active
MDA-MB-231 [6]
  Activity: Active
MDA-MB-231 [7]
  Activity: Active; Compound Showed Negligible Changes
[8]
  IC50: 164 nM
[9]
  Activity: Non-toxic
MDA-MB-231 [10]
  Activity: inactive
[11]
  Activity: Non-toxic
4T1 [12]
  Activity: Active; Compound Showed Low Toxicity
MDA-MB-231 [13]
  Activity: Active
MDA-MB-231 [14]
  IC50: 356 nM
4T1 [15]
  Activity: Active
Homo sapiens
  Activity: Not active; Compound Rarely Binds To Pd-L1
[16]
  Activity: Toxic
[17]
  Activity: Non-toxic
[18]
  Activity: Non-toxic
[19]
  Activity: Non-toxic
4T1 [20]
  inhibition: Active
MDA-MB-231 [21]
  Activity: Active
MDA-MB-231 [22]
  inhibition: Active
4T1 [23]
  Activity: Active
[24]
  Activity: Non-toxic
MDA-MB-231 [25]
  Activity: Active
[26]
  solubility: > 10 mM
MDA-MB-231 [27]
  inhibition: Active
[28]
  IC50: 403 nM
